Literature values in patent US20250032585A1, “Effective Doses of CNP Conjugates” (Ascendis Pharma Growth Disorders A/S, priority 2021, published 2025).

What was measured:
NPR-B receptor = conditions: pediatric patients with achondroplasia; increase from pre-dose baseline
[1] = in vivo, sc
[2] = system: pediatric patients with achondroplasia

## vosoritide
NPR-B receptor
  time of maximum urinary cGMP level post-dose: 2 h
[1]
  half-life: 21.0 to 27.9 min
[2]; after 52 weeks of treatment
  treatment difference in the change from baseline in annual growth velocity (AGV) compared to placebo: 1.57 cm/year
[2]; human, in vivo
  subjects with decreased blood pressure: 13%
  subjects with symptomatic episode of decreased blood pressure with vomiting and/or dizziness: 3%
